Holding throughout (assay type): in vivo, human
Experiment [1] has as its system breast cancer. Briefly: AZURE trial, retrospective MAF FISH stratification: time to bone metastasis (zoledronic acid arm vs control arm). An excerpt: (§1) The MAF FISH assay was produced by Kreatech for Inbiomotion based on KREATECH proprietary FISH technology. The probe set contains two probes: a MAF 16q23 probe plus a D16Z3 probe as control of chromosome 16 centromeric region. The assay was validated using a 16q23/D16Z3 probe (Inbiomotion) and Poseidon Tissue Digestion Kit from Kreatech. The scoring criteria were defined in a fact sheet and as follows: two FISH evaluable results per patient, and the highest value was selected. The scoring algorithm was as follows: 20 cells counted for target and centromere amplification, if the gene count is >2 and ≤3, then 50 cells were counted.
An overview of the AZURE clinical trial (Coleman et al N Eng J Med 2011; 365: 1396-1405 and AZURE Current Controlled Trials number, ISRCTN79831382 and ClinicalTrials.gov identifier NCT00072020) study design, whose patients were used to validate MAF, is provided in FIG. 2. MAF was validated in a retrospective analysis of the AZURE trial using patient tumor sample prospectively collected under regulatory compliant conditions. Out of the 3360 patients recruited, 1,769 donated tumor tissue (52.4%). There were 13 TMAs (tissue micro array) (150 patient samples each) (1,769 patients). There were 4 replicas of each TMA using different tissue cores (6,326 (4×patient)). One TMA had only 1 replica and two TMAs had three replicas. Based on the H&E analysis (hematoxilyin and eosin) (FIG. 3) (6,326): 3978 cores were evaluable (63%) and 2348 were nonevaluable.
For the FISH assay, there were 2,067 FISH evaluable cores (56%). […] 567 patients were nonevaluable by FISH in any of the 4 replicas (32%).
numerical and categorical (+/− cut-off>=2.5) variable; % of nucleic MAF amplified (MAF CN>2):numberical+categorical (cut-off TBD). For the IHC analysis: IHC H-Score: numerical+categorical (cut-off=200), IHC OD: numerical+categorical (cut-off tBD). The following clinical variables were analyzed: disease-free survival (DFS), invasive disease-free survival (IDFS), overall survival (OS), first recurrence in bone, bone recurrence at any time, time to first DFS event in bone, time to first DFS event not in bone, response to zoledronic acid treatment.
In analyzing the MAF FISH prognostic value, the patients from the control and treatment arms were pooled for the initial analysis. Optimized cut-offs for each variable to be analyzed were used when indicated. Death as a competing event was used in time to bone metastasis, anytime. The following clinical variables were analyzed: time to bone metastasis (anytime), time to bone metastasis (as first event), IDFS (including ipsilateral invasive breast tumor recurrence, regional invasive breast cancer recurrence, metastatic disease-breast cancer, death attributable to any cause, including breast cancer, contralateral invasive breast cancer, second primary non-breast invasive cancer), and overall survival.
The control and zoledronic acid treatment arms from the AZURE study described in Example 1 were evaluated to determine the effect of zoledronic acid treatment on MAF-stratified patients.

Experiment [2] concerns breast cancer. Briefly: AZURE trial, MAF FISH stratification: invasive disease free survival (IDFS) / time to recurrence. Particulars: MAF positive patients (>=2.2) in the zoledronic acid treatment arm; p<0.001, multivariate analysis.
Source text: as §1, with “counted. […]” for “counted.”
(§2) numerical and categorical (+/− cut-off>=2.5) variable; % of nucleic MAF amplified (MAF CN>2):numberical+categorical (cut-off TBD). […] The following clinical variables were analyzed: disease-free survival (DFS), invasive disease-free survival (IDFS), overall survival (OS), first recurrence in bone, bone recurrence at any time, time to first DFS event in bone, time to first DFS event not in bone, response to zoledronic acid treatment.
(§3) In analyzing the MAF FISH prognostic value, the patients from the control and treatment arms were pooled for the initial analysis. Optimized cut-offs for each variable to be analyzed were used when indicated. […]

For experiment [3], the system named is breast cancer. Briefly: AZURE trial, MAF FISH stratification: disease free survival (DFS). The following applies: MAF negative post menopausal patients; zoledronic acid treatment; 95% CI 0.33-0.95.
Source text: as §1, with “counted. […]” for “counted.”
as §2, §3

Experiment [4] has as its system breast cancer. Put plainly: AZURE trial, MAF FISH stratification: overall survival (OS). Particulars: MAF negative post menopausal patients; zoledronic acid treatment; 95% CI 0.31-1.01.
Source text: as §1, with “counted. […]” for “counted.”
as §2, §3

As for `O=P(O)(O)C(O)(Cn1ccnc1)P(=O)(O)O` [zoledronic acid], the “Hazard ratio (HR), risk of bone metastasis at any time” value stood at 0.65 in experiment [1] (MAF FISH not positive patients, pre-specified cut off 2.5, zoledronic acid treatment vs control, death as competing event, p=0.03); 1.54 in experiment [1] (MAF positive patients, cut off 2.5, zoledronic acid treatment vs control, non-significant, p=0.22); 0.52 in experiment [1] (zoledronic acid arm, MAF FISH not positive (<2.3) compared to MAF FISH positive patients, p=0.01). The “Hazard ratio (HR), time to a bone metastatic event (anytime)” value was found to be 0.66 in experiment [1] (MAF non-positive non-post-menopausal patients, cut off 2.5, p=0.08); 0.63 in experiment [1] (MAF non-positive postmenopausal patients, cut off 2.5, limited number of events); 2.44 in experiment [1] (MAF positive non-post-menopausal patients, cut off 2.5, p=0.045); 0.46 in experiment [1] (MAF positive postmenopausal patients (>2.5), treatment outcome, p=0.26, limited number of events). The “Hazard ratio (HR), time to recurrence (invasive disease)” value in experiment [2] is 0.52. In experiment [3], the “Hazard ratio (HR), DFS outcome” value is on record as 0.56. For the same compound, in experiment [4], the “Hazard ratio (HR), overall survival outcome” value was found to be 0.56.
